Patent US4668698A, “[(4-phenyl-1,3-dioxan-cis-5-yl)alkyl]phenylalkanoic acid derivatives” (Imperial Chemical Industries PLC, priority 1983, dated 1987)

Columns and labels:
[1] = tested on: rabbit aortal strip (TXA2 mimetic agent U46619 as agonist); test: rabbit aortal strip model, antagonism of the TXA2 mimetic U46619 (test a); format: cell-based
Source text: (a) The rabbit aortal strip model devised by Piper and Vane (Nature, 1969, 223, 29-35) using as agonist the TXA2 mimetic agent known as U46619 (R. L. Jones et alia in "Chemistry, Biochemistry and Pharmacological Activity of Prostanoids", eds. S. M. Roberts and F. Scheinmann, at p. 211; Pergamon Press, 1979);

[2] = tested on: blood pressure at the carotid artery; test: hypertensive effect of U46619 in anaesthetised rats (test d); format: in vivo, rats (Alderley Park strain); conditions: Rattus norvegicus, iv; intravenously via the jugular vein, anaesthetised male rats, n=3; read-out: ED50 (dose necessary to produce 50% of the maximum hypertensive effect)
Description: (d) Male rats (Alderley Park strain) are anaesthetised with sodium pentobarbital and blood pressure is monitored at the carotid artery. The TXA2 mimetic agent U46619 is administered intravenously via the jugular vein and an ED50 (dose necessary to produce 50% of the maximum hypertensive effect) is established (n=3). The ED50 for U46619 is approximately 5 μg/kg. A test compound is then administered either intravenously via the jugular vein or orally via a cannula directly into the stomach and the animal challenged with an ED50 dose of U46619, five minutes after dosing with test compound and then successively every ten minutes until the hypertensive effect of U46619 is no longer blocked.

| Compound | pA2 [1] | ED50 [2] [µg/kg] |
| --- | --- | --- |
| CC1(C)OC[C@H](Cc2ccccc2CCCC(=O)O)[C@H](c2ccccc2O)O1 (relative stereo) [Example 3, 4-(o-[2,2-dimethyl-4-o-hydroxyphenyl-1,3 dioxan cis-5-ylmethyl]phenyl)butanoic acid] | 6.19 |  |
| CCCCC[C@H](O)/C=C/[C@@H]1[C@@H](C/C=C\CCCC(=O)O)[C@H]2CO[C@@H]1C2 [Example U46619] |  | ~5 |
